# Where two headings read alike, the source gives them in different places.
# Key:
# [1] = system: COX-2 / COX-1; settings: ratio of IC80 of COX-2 to IC80 of COX-1; Warner 1999; cited from earlier work
# [2] = system: platelet aggregation; settings: healthy volunteers; 0.4 mg/kg; previous studies; cited from earlier work
# [3] = system: pain; settings: intravenous; Prescribing Information; cited from earlier work
# [4] = system: platelet function; assay: PFA-100 closure time, ex vivo whole blood, CEPI reagent cartridge; assay type: cell-based, human
# Experimental: (§1) The PFA-100 device determines closure time by simulating platelet adhesion and aggregation following vascular injury.
# (§2) Study subjects (n=13) had approximately 20 mL of whole blood collected in tubes containing 3.2% (0.105 M) buffered sodium citrate (1 part anticoagulant to 9 parts blood).
# (§3) Assessment of platelet function: Platelet function was evaluated using the PFA-100 Platelet Function Analyzer (Siemens Healthcare Diagnostics, Deerfield, Ill.). […] Use of this device to measure the effect of drugs on platelet adhesion is well documented. The PFA-100 device determines a sample closure time by simulating the platelet adhesion and aggregation that occurs following vascular injury. Analysis was performed using both collagen with epinephrine (CEPI) and collagen with adenosine diphosphate (CADP) reagent cartridges. […] Whole blood aliquots were treated according to the test condition and incubated for approximately 10 minutes prior to analysis in the PFA-100. All blood samples were analyzed within 2.5 hours of the time of collection. PFA-100 closure time results were reported for each test condition and reagent cartridge. […] Samples outside this range were excluded from the primary analysis.
# (§4) Statistical analysis: Treatment effect on CT was analyzed using an analysis of variance (ANOVA). […] Pairwise comparisons were performed; nominal P-values were reported without controlling for multiplicity. Subgroup analysis by gender was also performed. All analyses were performed separately for each reagent.
# [5] = system: platelet function; assay: PFA-100 closure time, ex vivo whole blood, CADP reagent cartridge; assay type: cell-based, human
# Experimental: as §1, §2, §3, §4
# [6] = cited from earlier work
# [7] = system: pain; assay: Time course of analgesic effect; assay type: in vivo, human; settings: meloxicam administration as disclosed (IV)
# [8] = cited from earlier work; remark: listed apart in the source
# [9] = all eligible subjects (12 subjects), 2.5 μg/mL
# [10] = all eligible subjects (12 subjects), 5 μg/mL
smiles,measurement,setting,value
"CC(=O)Oc1ccccc1C(=O)O [Aspirin, acetylsalicylic acid]",COX-2/COX-1 IC80 ratio,[1],3.8
CC(C)Cc1ccc(C(C)C(=O)O)cc1 (stereo not drawn) [Ibuprofen],COX-2/COX-1 IC80 ratio,[1],2.6
O=C(c1ccccc1)c1ccc2n1CCC2C(=O)O (stereo not drawn) [Ketorolac],bleeding time,[2],prolonged bleeding times
same,"epinephrine-, adenosine-, and collagen-induced platelet aggregation",[2],significant inhibition
same,time to onset of pain relief,[3],up to 30 minutes
same,COX-2/COX-1 IC80 ratio,[1],294
same,LS mean closure time,[4]; [9],193.17 s
same,LS mean closure time,[4]; [10],191.58 s
same,LS mean closure time,"[4]; final analysis set (8 subjects), 2.5 μg/mL",180.87 s
same,LS mean closure time,"[4]; final analysis set (8 subjects), 5 μg/mL",143.38 s
same,prolongation in closure time vs untreated control,[4]; therapeutic (and for meloxicam IV supratherapeutic) concentrations,significant prolongations
same,LS mean closure time,[5]; [9],82.08 s
same,LS mean closure time,[5]; [10],86.36 s
same,difference in closure time vs untreated control,[5]; all tested concentrations,no statistically significant differences
same,LS mean closure time,"[5]; final analysis set (8 subjects), 2.5 μg/mL in whole blood",79.41 s
same,LS mean closure time,"[5]; final analysis set (8 subjects), 2.5 μg/mL in whole blood, listed as ketorolac",79.41 (5.31) seconds
same,LS mean closure time,"[5]; final analysis set (8 subjects), 5 μg/mL in whole blood",87.95 s
same,LS mean closure time,"[5]; final analysis set (8 subjects), 5 μg/mL in whole blood, listed as ketorolac",87.95 (5.66) seconds
same,peak concentration,[6]; following 15-mg IV dose,~2.5 µg/mL
same,peak concentration,[6]; following 30-mg IV dose,~5 µg/mL
"Cc1cnc(NC(=O)C2=C(O)c3ccccc3S(=O)(=O)N2C)s1 [Meloxicam, 4-hydroxy-2-methyl-N-(5-methyl-2-thiazolyl)-2H-1,2-benzothiazine-3-carboxamide-1,1-dioxide]",therapeutic window,[7],at least 24 hours
same,water solubility,[8],poor water solubility
COc1ccc2cc([C@H](C)C(=O)O)ccc2c1 [Naproxen],COX-2/COX-1 IC80 ratio,[1],3
CS(=O)(=O)c1ccc(C2=C(c3ccccc3)C(=O)OC2)cc1 [Rofecoxib],COX-2/COX-1 IC80 ratio,[1],<0.05

# — patent publication US20220008430A1, “METHODS OF TREATING SUBJECTS HAVING PLATELET DYSFUNCTION WITH IV MELOXICAM” (priority 2018, published 2022)
